Source: US7189714B2, “N-type calcium channel antagonists for the treatment of pain” (Astrazeneca AB, priority 2000, dated 2007)

Legend:
N-type calcium channel = N-type calcium channel (Homo sapiens, UniProt Q00975); experiment: N-channel FLIPR assay (inhibition of K+-evoked calcium flux in differentiated IMR32 cells); assay type: cell-based; conditions: 80 mM K+ stimulus
L-type calcium channel = experiment: L-channel FLIPR assay (SK-N-SH cells); assay type: cell-based, human; conditions: L-channel reference on each plate, near IC50; read-out: reference concentration near IC50

Chain of N-type calcium channel (Q00975 whole entry): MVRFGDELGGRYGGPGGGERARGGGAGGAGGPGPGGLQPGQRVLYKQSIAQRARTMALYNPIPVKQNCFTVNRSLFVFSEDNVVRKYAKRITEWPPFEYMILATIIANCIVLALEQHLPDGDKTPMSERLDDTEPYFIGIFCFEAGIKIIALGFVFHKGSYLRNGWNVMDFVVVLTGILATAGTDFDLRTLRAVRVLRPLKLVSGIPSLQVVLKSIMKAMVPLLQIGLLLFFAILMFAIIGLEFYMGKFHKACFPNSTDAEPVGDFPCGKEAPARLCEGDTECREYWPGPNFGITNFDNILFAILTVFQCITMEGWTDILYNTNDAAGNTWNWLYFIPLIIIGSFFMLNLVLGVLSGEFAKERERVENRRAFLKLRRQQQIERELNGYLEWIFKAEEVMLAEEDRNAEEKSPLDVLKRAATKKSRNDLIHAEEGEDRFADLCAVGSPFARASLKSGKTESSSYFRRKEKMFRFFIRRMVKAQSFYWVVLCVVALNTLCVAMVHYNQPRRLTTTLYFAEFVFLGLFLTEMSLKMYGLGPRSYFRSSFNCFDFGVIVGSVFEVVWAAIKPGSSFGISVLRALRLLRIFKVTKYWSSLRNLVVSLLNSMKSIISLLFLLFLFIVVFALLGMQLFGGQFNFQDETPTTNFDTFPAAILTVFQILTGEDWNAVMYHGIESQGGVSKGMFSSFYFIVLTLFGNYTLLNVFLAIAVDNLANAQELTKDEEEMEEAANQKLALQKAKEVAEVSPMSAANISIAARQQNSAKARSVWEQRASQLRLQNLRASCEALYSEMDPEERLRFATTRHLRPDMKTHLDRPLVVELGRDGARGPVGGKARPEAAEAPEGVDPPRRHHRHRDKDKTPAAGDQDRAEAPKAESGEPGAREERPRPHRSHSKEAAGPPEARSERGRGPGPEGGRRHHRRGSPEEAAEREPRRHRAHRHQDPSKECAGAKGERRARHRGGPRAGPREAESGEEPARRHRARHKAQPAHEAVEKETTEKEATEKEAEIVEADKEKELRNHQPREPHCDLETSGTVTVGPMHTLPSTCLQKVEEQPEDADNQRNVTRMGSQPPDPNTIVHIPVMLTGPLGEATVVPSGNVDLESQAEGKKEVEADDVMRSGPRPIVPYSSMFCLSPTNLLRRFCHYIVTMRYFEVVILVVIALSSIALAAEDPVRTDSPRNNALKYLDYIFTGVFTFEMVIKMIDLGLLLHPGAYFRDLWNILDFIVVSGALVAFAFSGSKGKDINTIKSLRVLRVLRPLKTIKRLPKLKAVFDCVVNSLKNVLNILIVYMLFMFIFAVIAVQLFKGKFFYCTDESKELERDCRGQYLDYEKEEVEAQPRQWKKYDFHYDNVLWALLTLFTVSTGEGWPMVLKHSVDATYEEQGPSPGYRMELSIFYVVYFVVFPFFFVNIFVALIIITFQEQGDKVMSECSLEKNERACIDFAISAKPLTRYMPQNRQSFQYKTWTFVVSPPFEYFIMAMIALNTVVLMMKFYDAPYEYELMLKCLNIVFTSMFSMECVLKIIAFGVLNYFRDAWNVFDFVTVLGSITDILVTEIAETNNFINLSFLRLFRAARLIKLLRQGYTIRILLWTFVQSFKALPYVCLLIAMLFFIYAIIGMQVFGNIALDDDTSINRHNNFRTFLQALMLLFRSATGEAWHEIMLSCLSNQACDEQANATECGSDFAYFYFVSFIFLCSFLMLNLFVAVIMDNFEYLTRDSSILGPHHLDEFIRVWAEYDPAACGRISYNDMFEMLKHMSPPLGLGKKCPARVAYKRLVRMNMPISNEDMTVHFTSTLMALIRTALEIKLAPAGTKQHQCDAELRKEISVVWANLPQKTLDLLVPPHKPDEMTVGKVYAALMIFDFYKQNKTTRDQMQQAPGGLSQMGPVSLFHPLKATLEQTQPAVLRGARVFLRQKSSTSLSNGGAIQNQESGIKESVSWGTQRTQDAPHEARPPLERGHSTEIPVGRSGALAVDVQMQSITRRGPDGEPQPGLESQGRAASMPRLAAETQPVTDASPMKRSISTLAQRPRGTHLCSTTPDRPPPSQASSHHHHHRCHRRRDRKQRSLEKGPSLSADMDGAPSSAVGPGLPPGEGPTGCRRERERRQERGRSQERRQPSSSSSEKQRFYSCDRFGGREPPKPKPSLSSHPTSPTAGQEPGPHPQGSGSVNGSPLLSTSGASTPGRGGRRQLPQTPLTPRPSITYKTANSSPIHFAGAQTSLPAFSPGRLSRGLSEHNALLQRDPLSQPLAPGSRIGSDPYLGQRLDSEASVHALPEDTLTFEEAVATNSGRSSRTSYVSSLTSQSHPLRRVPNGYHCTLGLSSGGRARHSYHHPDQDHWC
Chain of N-type calcium channel (P54289 25-1103 partner): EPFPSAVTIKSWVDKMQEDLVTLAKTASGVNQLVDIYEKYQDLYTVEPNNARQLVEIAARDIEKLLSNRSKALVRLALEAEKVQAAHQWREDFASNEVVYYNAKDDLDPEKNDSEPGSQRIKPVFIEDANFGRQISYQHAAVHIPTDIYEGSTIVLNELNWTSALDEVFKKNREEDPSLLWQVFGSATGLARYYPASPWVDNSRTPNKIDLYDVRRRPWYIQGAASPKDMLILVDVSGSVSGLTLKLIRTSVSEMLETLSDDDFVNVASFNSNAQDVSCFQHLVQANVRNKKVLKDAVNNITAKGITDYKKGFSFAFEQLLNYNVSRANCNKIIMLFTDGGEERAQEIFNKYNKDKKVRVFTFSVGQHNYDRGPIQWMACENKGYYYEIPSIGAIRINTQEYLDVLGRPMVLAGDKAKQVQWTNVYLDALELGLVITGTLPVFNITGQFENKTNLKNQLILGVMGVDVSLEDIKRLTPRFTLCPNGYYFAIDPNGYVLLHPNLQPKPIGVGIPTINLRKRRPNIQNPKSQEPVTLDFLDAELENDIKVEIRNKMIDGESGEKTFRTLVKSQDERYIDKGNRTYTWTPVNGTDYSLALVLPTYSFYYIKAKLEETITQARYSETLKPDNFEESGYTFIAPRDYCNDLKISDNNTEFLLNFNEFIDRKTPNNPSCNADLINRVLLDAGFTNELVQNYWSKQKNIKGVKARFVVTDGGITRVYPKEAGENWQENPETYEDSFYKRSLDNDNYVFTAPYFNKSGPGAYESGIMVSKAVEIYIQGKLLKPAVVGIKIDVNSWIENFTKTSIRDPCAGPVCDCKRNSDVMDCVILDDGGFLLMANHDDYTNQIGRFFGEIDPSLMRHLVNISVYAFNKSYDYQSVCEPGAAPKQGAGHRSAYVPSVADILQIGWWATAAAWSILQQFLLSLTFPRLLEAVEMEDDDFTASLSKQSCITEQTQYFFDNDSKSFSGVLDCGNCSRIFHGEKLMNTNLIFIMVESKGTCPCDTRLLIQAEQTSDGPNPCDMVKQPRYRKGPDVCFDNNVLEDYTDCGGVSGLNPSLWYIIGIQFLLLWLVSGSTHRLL
Chain of N-type calcium channel (P54284 whole entry partner): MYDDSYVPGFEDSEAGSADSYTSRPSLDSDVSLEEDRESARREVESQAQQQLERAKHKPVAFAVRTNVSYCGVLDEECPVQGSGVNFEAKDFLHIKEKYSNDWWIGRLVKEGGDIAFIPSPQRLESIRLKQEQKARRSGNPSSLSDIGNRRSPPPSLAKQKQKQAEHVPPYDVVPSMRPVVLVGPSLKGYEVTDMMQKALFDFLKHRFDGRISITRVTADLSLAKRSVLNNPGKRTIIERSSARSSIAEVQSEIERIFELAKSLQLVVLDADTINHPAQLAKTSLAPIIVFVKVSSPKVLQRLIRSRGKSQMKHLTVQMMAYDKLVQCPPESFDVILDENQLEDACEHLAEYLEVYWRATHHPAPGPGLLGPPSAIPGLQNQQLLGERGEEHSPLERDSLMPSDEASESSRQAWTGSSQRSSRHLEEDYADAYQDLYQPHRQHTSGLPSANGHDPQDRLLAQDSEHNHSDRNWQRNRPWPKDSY

| IC50 (N-type calcium channel) [µM] | IC50 (L-type calcium channel) [µM] | Molecule |
| --- | --- | --- |
| 6.38 |  | CN(C)c1cc(-c2cccc(N3CCOCC3)c2)nc2ccc(N)cc12 [Example 56, 2-(3-Morpholin-4-ylphenyl)-N4,N4-dimethyl-quinoline-4,6-diamine] |
| 3.81 |  | CNc1ccc2nc(-c3cccc(F)c3)cc(N(C)C)c2c1 [Example 28, 2-(3-Fluorophenyl)-N4,N4,N6-trimethyl-quinoline-4,6-diamine] |
| 4.13 |  | Nc1ccc2nc(-c3ccccc3Cl)cc(N)c2c1 [Example 15, 2-(2-Chlorophenyl)-quinoline-4,6-diamine] |
| 9.15 |  | CN(C)c1cc(-c2cccc(F)c2)nc2ccc(N3CCCC3)cc12 [Example 38, 2-(3-Fluorophenyl)-N4,N4-dimethyl-6-pyrrolidin-1-yl-quinolin-4-amine] |
| 4.9 |  | CN(C)c1ccc2nc(-c3cccc(F)c3)cc(N(C)C)c2c1 [Example 26, 2-(3-Fluorophenyl)-N4,N4,N6,N6-tetramethyl-quinoline-4,6-diamine] |
| 2.54 |  | Nc1ccc2nc(-c3cccc(Br)c3)cc(N)c2c1 [Example 21, 2-(3-Bromophenyl)-quinoline-4,6-diamine] |
| 2.59 |  | Nc1ccc2nc(COc3ccccc3)cc(N)c2c1 [Example 14, 2-Phenoxymethyl-quinoline-4,6-diamine] |
| 5.88 |  | CN(C)c1cc(-c2cccc(F)c2)nc2ccc(NCC3CC3)cc12 [Example 49, 2-(3-Fluorophenyl)-N4,N4-dimethyl-N6-cyclopropylmethyl-quinoline-4,6-diamine] |
| 2.71 |  | COc1cccc(-c2cc(N)c3cc(N)ccc3n2)c1 [Example 9, 2-(3-Methoxyphenyl)-quinoline-4,6-diamine] |
| 10.5 |  | COc1ccccc1-c1cc(N)c2cc(N)ccc2n1 [Example 13, 2-(2-Methoxyphenyl)-quinoline-4,6-diamine] |
| 5.55 |  | CN(C)c1cc(-c2cccc(F)c2)nc2ccc(N)cc12 [Example 27, 2-(3-Fluorophenyl)-N4,N4-dimethyl-quinoline-4,6-diamine] |
| 5.44 |  | CN(C)c1cc(-c2cccc(F)c2)nc2ccc(NC3CC3)cc12 [Example 29, 2-(3 -Fluorophenyl)-N4,N4-dimethyl-N6-cyclopropyl-quinoline-4,6-diamine] |
| 4.53 |  | CNc1cc(-c2cccc(F)c2)nc2ccc(N)cc12 [Example 39, 2-(3-Fluorophenyl)-N4-methyl-quinoline-4,6-diamine] |
| 1.89 |  | CCCCCc1cc(N)c2cc(N)ccc2n1 [Example 12, 2-Pentyl-quinoline-4,6-diamine] |
| 6.91 |  | COc1ccc(-c2cc(N)c3cc(N)ccc3n2)cc1 [Example 11, 2-(4-Methoxyphenyl)-quinoline-4,6-diamine] |
| 5.83 |  | Nc1ccc2nc(-c3cccc(C(F)(F)F)c3)cc(N)c2c1 [Example 5, 2-(3-Trifluoromethylphenyl)-quinoline-4,6-diamine] |
| 7.96 |  | Nc1ccc2nc(-c3ccc(C4CCCCC4)cc3)cc(N)c2c1 [Example 19, 2-(4-Cyclohexylphenyl)-quinoline-4,6-diamine] |
| 6.46 |  | 2-(3-Fluorophenyl)-N4-morpholin-4-yl-N6-cyclopropyl-quinoline-4,6-diamine [Example 32] |
| 2.82 |  | CC(C)Nc1ccc2nc(-c3cccc(F)c3)cc(N(C)C)c2c1 [Example 33, 2-(3-Fluorophenyl)-N4,N4-dimethyl-N6-isopropyl-quinoline-4,6-diamine] |
| 7.74 |  | CN(C)c1cc(-c2cccc(F)c2)nc2ccc(NC3CCC3)cc12 [Example 48, 2-(3-Fluorophenyl)-N4,N4-dimethyl-N6-cyclobutyl-quinoline-4,6-diamine] |
| 2.98 |  | CN(C)c1cc(-c2cccc(F)c2)nc2ccc(Nc3cccc(N)n3)cc12 [Example 40, 2-(3-Fluorophenyl)-N4,N4-dimethyl-N6-(6-amino-pyridin-2-yl)-quinoline-4,6-diamine] |

| IC50 (N-type calcium channel) [µM] | IC50 (L-type calcium channel) [µM] | Molecule |
| --- | --- | --- |
| 3.54 |  | Nc1ccc2nc(-c3ccccc3)cc(NCc3ccccc3)c2c1 [Example 4, 2-Phenyl-N4-benzyl-quinoline-4,6-diamine] |
| 6.11 |  | CN(C)c1cc(-c2ccccc2)nc2ccc(N)cc12 [Example 6, 2-Phenyl-N4,N4-dimethyl-quinoline-4,6-diamine] |
| 36.3 |  | Nc1ccc2nc(-c3ccc(Cl)cc3)cc(N)c2c1 [Example 1, 2-(4-Chlorophenyl)-quinoline-4,6-diamine] |
| 3.18 |  | Nc1ccc2nc(-c3ccc(Br)cc3)cc(N)c2c1 [Example 20, 2-(4-Bromophenyl)-quinoline-4,6-diamine] |
| 1.8 |  | CNc1cc(-c2cccc(F)c2)nc2ccc(NC3CC3)cc12 [Example 41, 2-(3-Fluorophenyl)-N4-methyl-N6-cyclopropyl-quinoline-4,6-diamine] |
| 3.51 |  | CNc1ccc2nc(-c3ccccc3F)cc(N)c2c1 [Example 23, 2-(2-Fluorophenyl)-N6-methyl-quinoline-4,6-diamine] |
| 3.78 |  | C=CCNc1ccc2nc(-c3cccc(F)c3)cc(N(C)C)c2c1 [Example 51, 2-(3-Fluorophenyl)-N4,N4-dimethyl-N6-allyl-quinoline-4,6-diamine] |
| 17.2 |  | Nc1ccc2nc(-c3ccccc3)cc(N)c2c1 [Example 3, 2-Phenyl-quinoline-4,6-diamine] |
| 2.18 |  | CNc1ccc2nc(-c3cccc(F)c3)cc(NC)c2c1 [Example 37, 2-(3-Fluorophenyl)-N4,N6-dimethyl-quinoline-4,6-diamine] |
| 2.68 |  | CNc1ccc2nc(-c3cccc(F)c3)cc(N)c2c1 [Example 24, 2-(3-Fluorophenyl)-N6-methyl-quinoline-4,6-diamine] |
| 4.83 |  | Nc1ccc2nc(-c3cccc(Cl)c3)cc(N)c2c1 [Example 25, 2-(3-Chlorophenyl)-quinoline-4,6-diamine] |
| 2.31 |  | CN(C)c1cc(-c2cccc(N3CCOCC3)c2)nc2ccc(NC3CC3)cc12 [Example 55, 2-(3-Morpholin-4-ylphenyl)-N4,N4-dimethyl-N6-cyclopropyl-quinoline-4,6-diamine] |
| 1.99 |  | CCCNc1cc(-c2ccccc2)nc2ccc(N)cc12 [Example 7, 2-Phenyl-N4-propyl-quinoline-4,6-diamine] |
| 7.19 |  | CN(C)c1cc(-c2cccc(Cl)c2)nc2ccc(NC3CC3)cc12 [Example 53, 2-(3-Chlorophenyl)-N4,N4-dimethyl-N6-cyclopropyl-quinoline-4,6-diamine] |
|  | ~0.03 | CCOC(=O)C1=C(C)NC(C)=C(C(=O)OC)C1c1cccc([N+](=O)[O-])c1 (centres unmarked) [nitrendipine] |
| 5.9 |  | CN(C)c1cc(-c2cccc(F)c2)nc2ccc(NC3CCCC3)cc12 [Example 50, 2-(3-Fluorophenyl)-N4,N4-dimethyl-N6-cyclopentyl-quinoline-4,6-diamine] |
| 1.75 |  | COCCNc1cc(-c2cccc(F)c2)nc2ccc(NC3CC3)cc12 [Example 54, 2-(3-Fluorophenyl)-N4-(2-methoxy-ethyl)-N6-cyclopropyl-quinoline-4,6-diamine] |
| 3.81 |  | Nc1ccc2nc(-c3cccc(F)c3)cc(N)c2c1 [Example 10, 2-(3-Fluorophenyl)-quinoline-4,6-diamine] |
| 5.39 |  | Cc1c(Nc2ccc3nc(-c4cccc(F)c4)cc(N(C)C)c3c2)c(=O)n(-c2ccccc2)n1C [Example 44, 2-(3-Fluorophenyl)-N4,N4-dimethyl-N6-4-(1,5-dimethyl-2phenyl-1,2-dihydro-pyrazol-3-one)quinoline-4,6-diamine] |
| 81.6 |  | Nc1ccc2nc(-c3ccccc3F)cc(N)c2c1 [Example 16, 2-(2-Fluorophenyl)-quinoline-4,6-diamine] |
